Reference: ChEMBL document CHEMBL1201862, “PubChem BioAssay data set” (2004)
Active and inactive are the calls of the source.

Assays:
[1] = target: SUMO-activating enzyme (Homo sapiens, UniProt Q9UBT2); test: blockers of UBC9-mediated SUMO conjugation – biochemical, AlphaScreen, SUMOylation inhibitor project, confirmation (AID 2018); assay type: functional
[2] = target: T1, CAAX prenyl protease 2 (Saccharomyces cerevisiae S288c, UniProt Q03530); assay type: biochemical
T1 sequence (Q03530 whole entry): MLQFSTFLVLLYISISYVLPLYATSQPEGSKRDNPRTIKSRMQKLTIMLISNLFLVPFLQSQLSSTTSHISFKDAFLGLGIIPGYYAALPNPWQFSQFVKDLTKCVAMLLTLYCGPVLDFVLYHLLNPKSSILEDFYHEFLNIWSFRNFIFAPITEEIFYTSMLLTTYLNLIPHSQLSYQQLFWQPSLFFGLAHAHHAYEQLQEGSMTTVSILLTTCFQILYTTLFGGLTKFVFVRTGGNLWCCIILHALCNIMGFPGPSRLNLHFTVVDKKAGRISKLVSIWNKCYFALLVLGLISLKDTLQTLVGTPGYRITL

[3] = microbe, parasite or virus in culture; assay type: functional; conditions: Mycobacterium tuberculosis
[4] = target: T2, Protein RecA (Mycobacterium tuberculosis, UniProt P9WHJ3); test: Fluorescence Cell-Free Homogeneous Dose Retest to Identify Inhibitors of RecA-Intein Splicing Activity. [Related pubchem assays (depositor defined):AID2097, AID2223, AID489010, AID492950]; assay type: functional
T2 sequence (P9WHJ3 whole entry): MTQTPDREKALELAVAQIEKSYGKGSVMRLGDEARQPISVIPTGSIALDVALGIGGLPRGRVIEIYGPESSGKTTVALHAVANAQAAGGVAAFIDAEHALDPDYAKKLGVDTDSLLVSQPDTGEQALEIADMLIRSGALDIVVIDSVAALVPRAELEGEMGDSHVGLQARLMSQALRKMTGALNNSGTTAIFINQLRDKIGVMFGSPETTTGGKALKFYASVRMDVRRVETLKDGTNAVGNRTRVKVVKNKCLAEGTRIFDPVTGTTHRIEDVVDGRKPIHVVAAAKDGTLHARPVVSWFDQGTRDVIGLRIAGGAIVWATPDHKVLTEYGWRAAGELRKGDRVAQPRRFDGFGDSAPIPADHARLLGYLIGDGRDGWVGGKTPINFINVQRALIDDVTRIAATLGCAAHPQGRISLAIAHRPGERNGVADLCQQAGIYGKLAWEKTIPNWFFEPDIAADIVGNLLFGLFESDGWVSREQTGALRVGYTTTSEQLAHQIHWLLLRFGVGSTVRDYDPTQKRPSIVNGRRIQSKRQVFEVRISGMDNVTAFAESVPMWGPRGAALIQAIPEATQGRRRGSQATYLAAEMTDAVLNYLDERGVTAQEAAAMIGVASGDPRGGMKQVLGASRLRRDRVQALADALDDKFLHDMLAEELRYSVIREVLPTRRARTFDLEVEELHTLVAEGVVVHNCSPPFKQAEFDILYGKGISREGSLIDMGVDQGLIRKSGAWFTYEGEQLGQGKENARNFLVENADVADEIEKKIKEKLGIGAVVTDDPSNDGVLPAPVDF

[5] = reduction of Shn3 3'UTR-driven luciferase in osteoblasts – cell-based, Clone20 osteoblasts, firefly luciferase, cherry-picked, dose response (AID 624132); assay type: functional;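 also: firefly luciferase luminescence from reporter carrying the Shn3 3'UTR in osteoblasts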
[6] = target: T3, Replicative DNA helicase DnaB (Mycobacterium tuberculosis, UniProt P9WMR3); test: DnaB intein splicing inhibitors, dose response, biochemical, cell-free fluorescence (AID 449749); assay type: functional
T3 sequence (P9WMR3 whole entry): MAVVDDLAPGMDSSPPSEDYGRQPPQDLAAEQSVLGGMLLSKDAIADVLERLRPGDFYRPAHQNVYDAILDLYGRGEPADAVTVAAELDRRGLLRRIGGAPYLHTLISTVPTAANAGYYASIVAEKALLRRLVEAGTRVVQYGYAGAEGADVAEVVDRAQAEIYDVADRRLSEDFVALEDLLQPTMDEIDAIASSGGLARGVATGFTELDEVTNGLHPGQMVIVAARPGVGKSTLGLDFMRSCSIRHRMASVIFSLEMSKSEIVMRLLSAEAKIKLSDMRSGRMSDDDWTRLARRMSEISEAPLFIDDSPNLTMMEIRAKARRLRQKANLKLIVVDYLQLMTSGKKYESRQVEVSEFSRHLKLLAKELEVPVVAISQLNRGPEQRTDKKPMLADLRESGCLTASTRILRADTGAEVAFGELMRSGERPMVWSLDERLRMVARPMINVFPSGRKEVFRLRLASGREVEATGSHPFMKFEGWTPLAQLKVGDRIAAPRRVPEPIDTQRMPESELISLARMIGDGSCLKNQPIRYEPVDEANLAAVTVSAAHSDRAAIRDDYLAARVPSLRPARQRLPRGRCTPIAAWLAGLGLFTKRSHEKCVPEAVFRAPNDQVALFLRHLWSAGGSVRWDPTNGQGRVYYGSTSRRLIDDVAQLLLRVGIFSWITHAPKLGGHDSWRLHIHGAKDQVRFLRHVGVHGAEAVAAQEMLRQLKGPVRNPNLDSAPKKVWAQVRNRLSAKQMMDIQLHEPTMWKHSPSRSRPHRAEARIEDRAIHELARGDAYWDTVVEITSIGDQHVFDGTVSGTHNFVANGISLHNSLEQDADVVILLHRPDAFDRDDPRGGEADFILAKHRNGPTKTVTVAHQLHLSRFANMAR

[7] = loss of viability in HepG2 cells – cell-based, CellTiter-Glo, cherry-picked, cytotoxicity control for Shn3 inhibitor project, dose response (AID 624134); assay type: functional
[8] = THP-1 cell cytotoxicity, dose response, cytotoxicity control for non-replicating M. tuberculosis project (AID 489025); assay type: functional
[9] = Vero E6 cell cytotoxicity, dose response, cytotoxicity control for non-replicating M. tuberculosis project, secondary assay (AID 492998); assay type: functional, VeroE6; conditions: Vero C1008
[10] = non-specific 3'UTR reporter inhibition in Clone20-Shn3RL – cell-based, Renilla luciferase, cherry-picked, counter-screen for Shn3 inhibitor project, dose response (AID 624133); assay type: functional
[11] = cells; assay type: functional
[12] = system: HEK293; test: cells; conditions: Homo sapiens
[13] = system: HEK293; test: cells; conditions: Homo sapiens; remark: listed apart in the source
[14] = target: T4, Coagulation factor XII (Homo sapiens, UniProt P00748); assay type: functional;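 also: activated factor XIIa alpha cleaving a fluorogenic AMC peptide substrate; inhibitor potency from loss of enzyme activity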
T4 sequence (P00748 whole entry): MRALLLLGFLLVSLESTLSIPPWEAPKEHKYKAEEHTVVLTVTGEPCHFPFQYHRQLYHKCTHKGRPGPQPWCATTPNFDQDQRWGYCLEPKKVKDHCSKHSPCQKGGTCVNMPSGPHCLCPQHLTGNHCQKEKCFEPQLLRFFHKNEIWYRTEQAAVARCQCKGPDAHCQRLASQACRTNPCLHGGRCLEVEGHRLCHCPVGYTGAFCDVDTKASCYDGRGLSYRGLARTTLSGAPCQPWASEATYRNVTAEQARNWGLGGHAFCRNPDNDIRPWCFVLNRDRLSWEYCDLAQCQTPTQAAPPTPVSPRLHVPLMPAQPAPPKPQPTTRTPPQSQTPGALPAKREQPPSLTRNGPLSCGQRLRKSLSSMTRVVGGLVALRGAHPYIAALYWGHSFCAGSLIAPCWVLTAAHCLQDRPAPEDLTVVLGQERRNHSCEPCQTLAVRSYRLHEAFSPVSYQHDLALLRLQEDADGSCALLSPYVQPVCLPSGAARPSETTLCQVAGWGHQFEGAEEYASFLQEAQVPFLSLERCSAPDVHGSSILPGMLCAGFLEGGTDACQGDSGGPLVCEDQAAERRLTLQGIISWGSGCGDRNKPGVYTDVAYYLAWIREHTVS

Sequence of SUMO-activating enzyme (Q9UBE0 whole entry): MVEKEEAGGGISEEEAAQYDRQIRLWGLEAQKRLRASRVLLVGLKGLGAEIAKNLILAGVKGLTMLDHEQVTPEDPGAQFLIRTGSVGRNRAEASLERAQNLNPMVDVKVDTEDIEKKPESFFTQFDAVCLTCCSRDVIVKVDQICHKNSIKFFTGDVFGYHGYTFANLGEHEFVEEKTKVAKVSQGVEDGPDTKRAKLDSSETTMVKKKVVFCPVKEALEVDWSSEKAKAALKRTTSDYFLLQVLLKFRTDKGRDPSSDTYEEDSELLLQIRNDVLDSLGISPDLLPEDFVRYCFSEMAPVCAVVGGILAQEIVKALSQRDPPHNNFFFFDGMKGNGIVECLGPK
Sequence of SUMO-activating enzyme (Q9UBT2 whole entry): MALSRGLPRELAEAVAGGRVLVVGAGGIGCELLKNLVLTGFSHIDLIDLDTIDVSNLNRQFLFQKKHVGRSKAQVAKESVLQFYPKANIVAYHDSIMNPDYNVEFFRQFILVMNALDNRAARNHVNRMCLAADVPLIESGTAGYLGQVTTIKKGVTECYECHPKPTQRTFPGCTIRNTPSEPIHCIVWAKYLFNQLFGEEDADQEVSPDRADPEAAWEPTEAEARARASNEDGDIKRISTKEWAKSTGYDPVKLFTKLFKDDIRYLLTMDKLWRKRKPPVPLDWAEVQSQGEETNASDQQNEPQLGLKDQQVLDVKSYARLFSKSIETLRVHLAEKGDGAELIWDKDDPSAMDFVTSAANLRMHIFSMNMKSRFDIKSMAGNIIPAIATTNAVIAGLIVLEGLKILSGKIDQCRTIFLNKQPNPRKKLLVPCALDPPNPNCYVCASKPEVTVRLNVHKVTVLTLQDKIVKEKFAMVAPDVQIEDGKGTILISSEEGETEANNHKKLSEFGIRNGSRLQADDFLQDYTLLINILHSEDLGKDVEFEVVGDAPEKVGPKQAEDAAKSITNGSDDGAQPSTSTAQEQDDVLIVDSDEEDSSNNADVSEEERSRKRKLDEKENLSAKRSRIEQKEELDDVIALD

With COc1ccc(Cc2n[nH]c(=S)n2NC(=O)Nc2ccc(C)cc2)cc1 the IC50 [1] was > 100 µM (inactive).

For Cc1ccc(-c2cc(C)nc3nc(N)nn23)cc1, the AC50 [2] was 62.7 µM (active).

In the case of COC(=O)/C(=C1/Oc2cc(C)oc(=O)c2S1)C(F)(F)F, the CC50 [3] is reported as 9.91 µM (active), the EC50 [4] is reported as 3.74 µM (active) and the AC50 [5] is reported as 4.64 µM (active). For the same compound, the AC50 [6] was > 380 µM (inactive), the AC50 [7] was 43 µM (active) and the CC50 [8] was 10.2 µM (active). For the same compound, the CC50 [9] was 7.26 µM (active), the AC50 [10] was 16.6 µM (active) and the IC50 [11] was 1.64 µM (active).

For CSc1ccc(C(=O)C2CCCN(C(=O)c3ccc4c(c3)no[n+]4[O-])C2)cc1 (stereo not drawn), the CC50 [3] was 10.8 µM (active), the CC50 [8] was 39.4 µM (active) and the CC50 [9] was 13.7 µM (active). The IC50 [11] was 1.5 µM (active).

In the case of CCOC(=O)CSc1nc(N)c(C#N)c(-c2ccc(OCC)cc2)c1C#N, the EC50 [12] is reported as > 59.6 µM (inactive) and the EC50 [13] is reported as > 59.6 µM (inactive).

In the case of O=C(Nc1cc(=O)[nH]c2ncnn12)c1ccco1, the IC50 [14] is reported as > 50 µM (inactive).
